# Assay results from paper PMC7550916 (Computational and Structural Biotechnology Journal, 2020).
# Experiments:
# [1] = system: human A2A^Δ40R (pHALO-tagged); assay type: binding
# [2] = system: non-transfected HEK-293T cells; assay: ERK1/2 phosphorylation in non-transfected cells; assay type: cell-based, human; settings: non-transfected HEK-293T cells (Fig. S1A)
# A2AR = A2AR (Homo sapiens, UniProt P29274); assay: cAMP determination; settings: against all agonists (Fig. S8)
# Chain of A2AR (P29274 whole entry): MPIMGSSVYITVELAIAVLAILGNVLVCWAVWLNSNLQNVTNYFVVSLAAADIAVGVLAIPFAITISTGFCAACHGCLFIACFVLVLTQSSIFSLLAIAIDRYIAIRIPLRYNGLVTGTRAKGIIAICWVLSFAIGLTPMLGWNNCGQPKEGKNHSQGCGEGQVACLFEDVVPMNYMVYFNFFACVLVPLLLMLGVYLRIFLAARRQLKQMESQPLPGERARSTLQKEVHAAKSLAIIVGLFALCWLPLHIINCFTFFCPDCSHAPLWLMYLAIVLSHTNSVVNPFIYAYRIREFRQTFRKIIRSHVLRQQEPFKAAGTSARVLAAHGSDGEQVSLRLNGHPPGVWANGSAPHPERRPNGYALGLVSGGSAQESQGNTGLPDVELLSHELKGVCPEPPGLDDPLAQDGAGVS
compound,measurement,setting,value
CCNC(=O)[C@H]1O[C@@H](n2cnc3c(N)nc(NCCc4ccc(CCC(=O)O)cc4)nc32)[C@H](O)[C@@H]1O [CGS-21680],ΔΔG (binding free energy difference between wild type and truncated receptor),[1],0.5 kcal/mol
same,ERK1/2 phosphorylation vs basal,[2],not significantly different to the basal condition
Nc1nc2c(cnn2CCc2ccccc2)c2nc(-c3ccco3)nn12 [SCH-58261],effect of antagonist on agonist-induced cAMP production,A2AR,blockade of cAMP production
